In patent US10227331B2 (priority 2015, dated 2019):
Read-outs that look alike come from different tables or passages of the source.

Legend:
[1] = system: P. aeruginosa expressing IMP-1, efflux+ (MB9798); assay type: cell-based, Pseudomonas aeruginosa; conditions: for P. aeruginosa expressing IMP-1, efflux+ (MB9798) MITC95: imipenem at 2 μg/mL, in the presence of a class A, C, D serine β-lactamase inhibitor closely related to relebactam; for Efflux ratio: ratio MITC95 PA_9798/MITC95 PA_9799
Text: (§1) The strain background is Pseudomonas aeruginosa PAO1.

IMP-1 = IMP-1 (Serratia marcescens, UniProt P52699); assay: biochemical; assay type: biochemical; conditions: CCF2-FA substrate, 2 hours at 25° C; read-out: IMP-1 IC50
Method in brief: (§2)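 Two-hour, 25° C incubation of enzyme with inhibitor and CCF2-FA (7-hydroxycoumarin–cephalosporin–fluorescein). Fluorescence read-out; IC50 via 4-parameter fit.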

NDM-1 = NDM-1 (Klebsiella pneumoniae, UniProt C7C422); assay: biochemical; assay type: biochemical
Method in brief: as §2

VIM-1 = VIM-1 (Pseudomonas aeruginosa (strain ATCC 15692 / DSM 22644 / CIP 104116 / JCM 14847 / LMG 12228 / 1C / PRS 101 / PAO1), UniProt A0A0F7KYQ8); assay: biochemical; conditions: CCF2-FA substrate, 2 hours at 25° C
Method in brief: as §2

[2] = system: Escherichia coli expressing NDM-1 (CLB30005, CLB30016); assay type: cell-based; conditions: with imipenem 1 μg/ml, 95% inhibition of bacterial growth; for Escherichia coli MITC95: NDM-1 (CLB30016)
Method in brief: (§3)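 Colonies from overnight 35 °C blood-agar cultures were suspended in saline, diluted 1:100 into 1.1× CAMHB and exposed to test compound with or without imipenem at 1 μg/ml. After 22–24 h at 35 °C, absorbance was read to find the concentration restoring imipenem susceptibility.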

[3] = system: Klebsiella pneumoniae expressing VIM-1 (IHMA599644); assay type: cell-based; conditions: with imipenem 1 μg/ml, 95% inhibition of bacterial growth; for Klebsiella pneumoniae MITC95: VIM-1 (IHMA599644)
Method in brief: as §3

[4] = system: Serratia marcescens expressing IMP-1 (CL5741); assay type: cell-based; conditions: with imipenem 1 μg/ml, 95% inhibition of bacterial growth; for Serratia marcescens MITC95: IMP-1 (CL5741)
Method in brief: as §3

[5] = system: P. aeruginosa expressing IMP-1, efflux− (MB9799); assay: Efflux: concentration of MBL inhibitor which restores susceptibility to imipenem; assay type: cell-based, Pseudomonas aeruginosa; conditions: imipenem at 2 μg/mL, in the presence of a class A, C, D serine β-lactamase inhibitor closely related to relebactam
Text: as §1

[6] = CCF2-FA substrate, 2 hours at 25° C, read-out: NDM-1 IC50

Chain of NDM-1 (C7C422 whole entry, looked up, species assumed): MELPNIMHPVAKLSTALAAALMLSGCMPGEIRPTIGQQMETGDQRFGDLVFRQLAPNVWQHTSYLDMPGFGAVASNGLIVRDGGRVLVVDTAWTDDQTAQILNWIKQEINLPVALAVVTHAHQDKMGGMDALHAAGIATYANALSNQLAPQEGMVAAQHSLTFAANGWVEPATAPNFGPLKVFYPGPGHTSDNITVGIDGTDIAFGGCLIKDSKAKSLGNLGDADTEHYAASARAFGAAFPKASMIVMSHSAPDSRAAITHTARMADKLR
Chain of IMP-1 (P52699 whole entry, looked up, species assumed): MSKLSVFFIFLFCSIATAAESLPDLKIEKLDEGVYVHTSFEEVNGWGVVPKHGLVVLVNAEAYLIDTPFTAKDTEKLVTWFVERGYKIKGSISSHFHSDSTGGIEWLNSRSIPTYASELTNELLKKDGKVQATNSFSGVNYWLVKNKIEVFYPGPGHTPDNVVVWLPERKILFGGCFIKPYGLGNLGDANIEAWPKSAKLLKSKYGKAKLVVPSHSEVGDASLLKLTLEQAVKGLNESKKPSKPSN

| SMILES | P. aeruginosa expressing IMP-1, efflux+ (MB9798) MITC95 [1] [µM] | Efflux ratio [1] | IC50 (IMP-1) [nM] | IC50 (NDM-1; [6]) [nM] | IC50 (VIM-1) [nM] | Escherichia coli MITC95 [2] [µM] | Klebsiella pneumoniae MITC95 [3] [µM] | Serratia marcescens MITC95 [4] [µM] | P. aeruginosa expressing IMP-1, efflux− (MB9799) MITC95 [5] [µM] | IC50 (NDM-1) [nM] | Escherichia coli expressing NDM-1 (CLB30016) MITC95 [2] [µM] | Klebsiella pneumoniae expressing VIM-1 (IHMA599644) MITC95 [3] [µM] | Serratia marcescens expressing IMP-1 (CL5741) MITC95 [4] [µM] |
| --- | --- | --- | --- | --- | --- | --- | --- | --- | --- | --- | --- | --- | --- |
| COC(=O)CNC(=O)c1nc2c(-c3ccc(S(=O)(=O)C4CNC4)c(S(N)(=O)=O)c3-c3nn[nH]n3)cccc2[nH]1 [Example 256, Methyl (4-(4-(azetidin-3-ylsulfonyl)-3-sulfamoyl-2-(2H-tetrazol-5-yl)phenyl)-1H-benzo[d]imidazole-2-carbonyl)glycinate] | 6.25 | 1.00 | 0.999 | 0.108 | 0.35 | 6.25 | 12.5 | 6.25 | 6.25 |  |  |  |  |
| Nc1nc2c(-c3ccc(S(=O)(=O)CCO)c(S(N)(=O)=O)c3-c3nn[nH]n3)cccc2s1 [Example 314, 3-(2-aminobenzo[d]thiazol-4-yl)-6-((2-hydroxyethyl)sulfonyl)-2-(2H-tetrazol-5-yl)benzenesulfonamide] | 12.5 | 2.00 | 0.445 | 0.379 | 0.727 | 12.5 | 12.5 | 6.25 | 6.25 |  |  |  |  |
| NCCS(=O)(=O)c1ccc(C2CCNc3ccccc32)c(-c2nn[nH]n2)c1S(N)(=O)=O (stereo not drawn) [Example 272, 6-(2-aminoethylsulfonyl)-3-(1,2,3,4-tetrahydroquinolin-4-yl)-2-(2H-tetrazol-5-yl)benzenesulfonamide] | 100 | 63.98 | 6.06 |  | 0.64 | 3.125 | 6.25 | 6.25 | 1.563 | 1.84 |  |  |  |
| NCCS(=O)(=O)c1ccc(-c2cccc3[nH]c(=O)[nH]c23)c(-c2nnn[nH]2)c1S(N)(=O)=O [Example 300, 6-((2-aminoethyl)sulfonyl)-3-(2-oxo-2,3-dihydro-1H-benzo[d]imidazol-4-yl)-2-(1H-tetrazol-5-yl) benzenesulfonamide] | 1.563 | 2.00 | 0.415 | 0.254 | 0.162 | 0.7813 | 3.125 | 1.563 | 0.7813 |  |  |  |  |
| Cc1ccc(-c2ccc(S(=O)(=O)CCN)c(S(N)(=O)=O)c2-c2nn[nH]n2)c2nc(N)[nH]c12 [Example 23, 3-(2-amino-7-methyl-1H-benzo[d]imidazol-4-yl)-6-((2-aminoethyl)sulfonyl)-2-(2H-tetrazol-5-yl)benzenesulfonamide] | 0.7813 | 2.00 | 0.352 | 0.123 | 0.0986 |  |  |  | 0.3906 |  | 0.3906 | 0.7813 | 0.7813 |
| NCCCNC(=O)c1cccc(-c2ccc(S(=O)(=O)CCN)c(S(N)(=O)=O)c2-c2nn[nH]n2)c1N [Example 375, 2-Amino-4′-((2-aminoethyl)sulfonyl)-N-(3-aminopropyl)-3′-sulfamoyl-2′-(2H-tetrazol-5-yl)-[1,1′-biphenyl]-3-carboxamide] | 1.563 | 2.00 | 1.71 | 2.11 | 0.53 | 1.563 | 1.563 | 1.563 | 0.7813 |  |  |  |  |
| CC(=O)N1CC(S(=O)(=O)c2ccc(-c3cccc4nc(N)[nH]c34)c(-c3nn[nH]n3)c2S(N)(=O)=O)C1 [Example 54, 6-(1-acetylazetidin-3-ylsulfonyl)-3-(2-amino-3H-benzo[d]imidazol-4-yl)-2-(2H-tetrazol-5-yl)benzenesulfonamide] | 50 | 16.00 | 2.38 | 0.178 | 0.435 |  |  |  | 3.125 |  | 6.25 | 12.5 | 6.25 |
| Cc1n[nH]c2cc(F)c(-c3ccc(S(=O)(=O)CCN)c(S(N)(=O)=O)c3-c3nnn[nH]3)cc12.O=C(O)C(F)(F)F [Example 162, 2-((4-(6-fluoro-3-methyl-1H-indazol-5-yl)-2-sulfamoyl-3-(1H-tetrazol-5-yl)phenyl)sulfonyl)ethanaminium 2,2,2-trifluoroacetate] | 100 | 63.98 | 2.81 | 2.78 | 0.32 |  |  |  | 1.563 |  | 3.125 | 6.25 | 3.125 |
| Nc1nc2c(-c3ccc(S(=O)(=O)C4CNC4)c(S(N)(=O)=O)c3-c3nn[nH]n3)cccc2o1 [Example 30, 3-(2-aminobenzo[d]oxazol-4-yl)-6-(azetidin-3-ylsulfonyl)-2-(2H-tetrazol-5-yl)benzenesulfonamide] | 1.563 | 1.00 | 0.585 | 0.0846 | 0.409 |  |  |  | 1.563 |  | 0.7813 | 3.125 | 1.563 |
| NCCNC(=O)c1ccccc1-c1ccc(S(=O)(=O)CCN)c(S(N)(=O)=O)c1-c1nn[nH]n1 [Example 342, N-(2-Aminoethyl)-4′-((2-aminoethyl)sulfonyl)-3′-sulfamoyl-2′-(2H-tetrazol-5-yl)-[1,1′-biphenyl]-2-carboxamide] | 12.5 | 4.00 | 34.2 | 15.3 | 2.84 | 1.563 | 1.563 | 3.125 | 3.125 |  |  |  |  |
| Nc1nc2c(-c3ccc(S(=O)(=O)CCO)c(S(N)(=O)=O)c3-c3nn[nH]n3)cccc2c[n+]1[O-] [Example 319, 2-amino-8-(4-((2-hydroxyethyl)sulfonyl)-3-sulfamoyl-2-(2H-tetrazol-5-yl)phenyl)quinazoline 3-oxide] | 25 | 2.00 | 1.92 | 0.194 | 0.407 | 100 | 50 | 25 | 12.5 |  |  |  |  |
| NCCS(=O)(=O)c1ccc(-c2cccc3sc(CN)nc23)c(-c2nn[nH]n2)c1S(N)(=O)=O [Example 87, 6-(2-aminoethylsulfonyl)-3-(2-(aminomethyl)benzo[d]thiazol-4-yl)-2-(2H-tetrazol-5-yl)benzenesulfonamide] | 0.7813 | 2.00 | 0.562 | 0.475 | 0.133 |  |  |  | 0.3906 |  | 0.7813 | 0.7813 | 0.7813 |
| NCCS(=O)(=O)c1ccc(-c2cnc3[nH]ccc3c2)c(-c2nnn[nH]2)c1S(N)(=O)=O.O=C(O)C(F)(F)F [Example 149, 2-((4-(1H-pyrrolo[2,3-b]pyridin-5-yl)-2-sulfamoyl-3-(1H-tetrazol-5-yl)phenyl)sulfonyl)ethanaminium 2,2,2-trifluoroacetate] | 6.25 | 8.00 | 0.856 | 0.534 | 0.185 |  |  |  | 0.7813 |  | 1.563 | 3.125 | 3.125 |
